Data taken from ChEMBL document CHEMBL1152056, “Targeting radiosensitizers to DNA by minor groove binding: nitroarenes based on netropsin and distamycin” (1993).

Tests used:
[1] = Concentration required to kill 50 % of the cells after ca. 7 days aerobic exposure.; assay type: functional, Cricetulus griseus
Nucleic Acid = assay: Concentration required for 50% decrease in fluorescence of ethidium bromide bound to calf thymus DNA. at 600 nm; assay type: nucleic-acid assay; conditions: Bos taurus
[2] = Enhancement ratio was calculated to determine the radiosensitization as the ratio of radiation dose required to kill similar cells in anoxia to those with the compound; at a concentration of ~5 mM; assay type: functional, Cricetulus griseus
[3] = Enhancement ratio was calculated to determine the radiosensitization as the ratio of radiation dose required to kill similar cells in anoxia to those with the compound; at a concentration of 1.0 mM; assay type: functional, Cricetulus griseus
[4] = Cellular uptake was calculated as the ratio of intracellular and extracellular concentration in V79 hamster cells.; assay type: functional, Cricetulus griseus
[5] = Enhancement ratio was calculated to determine the radiosensitization as the ratio of radiation dose required to kill similar cells in anoxia to those with the compound; at a concentration of 0.05 mM; assay type: functional, Cricetulus griseus
[6] = Enhancement ratio was calculated to determine the radiosensitization as the ratio of radiation dose required to kill similar cells in anoxia to those with the compound; at a concentration of 0.5 mM; assay type: functional, Cricetulus griseus
[7] = Concentration required to kill 50 % of the cells after ca. 7 days aerobic exposure; value ranges from 0.025-0.05; assay type: functional, Cricetulus griseus
[8] = Concentration required to kill 50 % of the cells after ca. 7 days exposure.; assay type: functional, Cricetulus griseus

C50 (Nucleic Acid) [µM] | SMILES | C50 [1] [mM] | Ratio (Ci/Ce) [4] | Ratio [6] | further results
3200 | Cc1ncc([N+](=O)[O-])n1CCO [METRONIDAZOLE] | 6.5 | – | – | Ratio [2]: 1.6
3000 | O=C(Cn1ccnc1[N+](=O)[O-])NCCO [ETANIDAZOLE] | – | 0.4 | – | Ratio [3]: 1.55
> 1000 | NC(=O)N/N=C/c1ccc([N+](=O)[O-])o1 [NITROFURAZONE] | 0.13 | – | – | Ratio [5]: 1.6
1.3 | Cn1cc(NC(=O)c2cc(NC(=O)c3cc(NC=O)cn3C)cn2C)cc1C(=O)NCCC(=N)N | – | – | – | –
6.8 | Cl.Cn1cc(NC(=O)Cn2ccnc2[N+](=O)[O-])cc1C(=O)NCCC(=N)N | >0.25 | – | 1.04 | –
26 | Cl.Cn1cc(NC(=O)c2ccc([N+](=O)[O-])o2)cc1C(=O)NCCC(=N)N | – | – | – | Ratio [5]: 1.3; C50 [7]: 0.025 mM
4.8 | Cl.Cn1cc(NC(=O)c2cc(NC(=O)c3ccc([N+](=O)[O-])o3)cn2C)cc1C(=O)NCCC(=N)N | – | 9.4 | 1.16 | C50 [8]: <0.01 mM
2700 | COCC(O)Cn1ccnc1[N+](=O)[O-] (stereo not drawn) [MISONIDAZOLE] | 1.3 | 0.7 | – | –
16 | Cl.Cn1cc(NC(=O)c2cc(NC(=O)Cn3ccnc3[N+](=O)[O-])cn2C)cc1C(=O)NCCC(=N)N | >0.25 | 3.6 | 1.04 | –

SMILES | C50 (Nucleic Acid) [µM] | C50 [1] [mM] | Ratio (Ci/Ce) [4] | Ratio [6] | further results
Cn1cc(NC(=O)c2cc(NC(=O)CNC(=N)N)cn2C)cc1C(=O)NCCC(=N)N | 1.1 | – | – | – | –
